These are literature values, as cited in patent publication US20180146647A1, “MEDETOMIDINE FOR USE IN CONTROLLING PARASITIC CRUSTACEANS ON FISH” (I-Tech AB, priority 2015, published 2018).

Each structure is given as a SMILES string.

The subject of one series is cyprid larvae. The following applies: medetomidine 10 nM; Mol Pharmacol 78:237-248, 2010.
A further series deals with α2-adrenoceptor. The note with it: given to mammals and fish; Sinclair, 2003; Ruuskanen et al., 2005.
Another series relates to algae. The note with it: target protein lacking within algae.

With `Cc1cccc(C(C)c2c[nH]cn2)c1C` (racemic) [Medetomidine, (±) 4-[1-(2,3-Dimethylphenyl)ethyl]-1H-imidazole], in the series with cyprid larvae, the “kicking of the cyprid larvae” value is “more than 100 kicks per minute”. Further, in the series on α2-adrenoceptor, the “physiological effect in vertebrates” value was “sedation and locomotor inhibition”. For the same compound, the “effect on algal growth” value in the series on algae was “no effect on algal growth”.
